Data on 22 molecules can be found in ChEMBL document CHEMBL5537214 (RSC Med Chem, 2024).

The target of series [1] is Acetylcholinesterase (Electrophorus electricus, UniProt O42275). As to the kind of experiment: Inhibition of electric eel AChE using acetylthiocholine iodide as substrate incubated for 15 mins by Ellman's method.
A short description of the next series: in vitro. The conditions noted are these: PAMPA.
Series [2] can be described thus: Lipophilicity, log P of the compound. The class given is physicochemical. The conditions noted are these: octanol/water.
Series [3] concerns the target Acetylcholinesterase (Homo sapiens, UniProt P22303).
Description: Inhibition of AChE (unknown origin)
The next series is described as follows: physchem. Conditions: octanol/water.

Usually IC50 stands for the concentration that inhibits the measured activity by half. Read a high IC50 as weaker potency. A word on the Papp: it is the rate of passage across a membrane or cell layer, normalised by area and donor concentration. A low value points to slow passage. A word on the logP: it is a log measure of how a compound divides between an organic and an aqueous phase. Lower therefore signals a more hydrophilic compound. One may read the logD as lipophilicity at a set pH, counting ionised and neutral species. Low readings indicate lower lipophilicity, high ones higher lipophilicity.

Sequence of Acetylcholinesterase (Electrophorus electricus, UniProt O42275) (O42275 whole entry): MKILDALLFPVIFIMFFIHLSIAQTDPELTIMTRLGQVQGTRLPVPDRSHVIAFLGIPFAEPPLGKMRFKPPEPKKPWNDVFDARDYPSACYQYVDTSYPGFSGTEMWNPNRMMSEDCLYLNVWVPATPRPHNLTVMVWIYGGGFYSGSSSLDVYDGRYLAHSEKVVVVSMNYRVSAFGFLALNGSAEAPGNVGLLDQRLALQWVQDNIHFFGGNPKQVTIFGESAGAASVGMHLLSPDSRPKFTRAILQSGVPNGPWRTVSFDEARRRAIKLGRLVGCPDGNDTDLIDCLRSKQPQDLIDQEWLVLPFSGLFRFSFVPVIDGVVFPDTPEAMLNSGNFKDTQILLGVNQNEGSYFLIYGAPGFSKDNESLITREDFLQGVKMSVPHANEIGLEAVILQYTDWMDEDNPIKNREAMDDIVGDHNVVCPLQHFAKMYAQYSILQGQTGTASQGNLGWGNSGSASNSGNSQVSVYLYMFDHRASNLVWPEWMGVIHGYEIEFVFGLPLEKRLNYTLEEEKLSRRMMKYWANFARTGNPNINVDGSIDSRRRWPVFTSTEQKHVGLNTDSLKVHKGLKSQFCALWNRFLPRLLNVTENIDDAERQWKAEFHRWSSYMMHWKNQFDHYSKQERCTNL
Sequence of Acetylcholinesterase (Homo sapiens, UniProt P22303) (P22303 whole entry): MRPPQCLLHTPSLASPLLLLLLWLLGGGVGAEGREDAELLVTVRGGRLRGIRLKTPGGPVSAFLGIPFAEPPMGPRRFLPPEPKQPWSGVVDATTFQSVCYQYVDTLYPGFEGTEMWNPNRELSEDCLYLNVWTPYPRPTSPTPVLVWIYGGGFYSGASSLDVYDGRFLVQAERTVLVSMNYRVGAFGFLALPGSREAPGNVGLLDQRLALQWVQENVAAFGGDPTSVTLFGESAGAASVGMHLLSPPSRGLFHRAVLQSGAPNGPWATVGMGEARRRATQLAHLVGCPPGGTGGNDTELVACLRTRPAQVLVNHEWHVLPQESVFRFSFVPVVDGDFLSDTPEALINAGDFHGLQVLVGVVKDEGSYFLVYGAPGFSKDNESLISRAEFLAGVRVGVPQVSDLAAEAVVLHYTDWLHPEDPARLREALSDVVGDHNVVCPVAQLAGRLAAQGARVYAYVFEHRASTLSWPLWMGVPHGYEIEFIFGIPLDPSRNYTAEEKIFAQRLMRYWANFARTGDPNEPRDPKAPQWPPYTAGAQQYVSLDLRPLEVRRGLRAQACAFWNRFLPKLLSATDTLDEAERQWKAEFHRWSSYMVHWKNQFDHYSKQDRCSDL
Description for physchem: Lipophilicity, log D of compound

`O=C1c2ccccc2C(=O)N1CCC1CCN(Cc2ccccc2)CC1`: the 50% inhibitory concentration (IC50) against Acetylcholinesterase [1] stood at 0.0132 µM.

In turn, `COc1cc2c(cc1OC)C(=O)C(CC1CCNCC1)C2` (centres undefined) returned an IC50 at Acetylcholinesterase [1] of 9.45 µM.

As for `COc1cc2c(cc1OC)C(=O)C(CC1CCN(C(=O)c3ccccc3)CC1)C2` (centres undefined), the IC50 at Acetylcholinesterase [1] was found to be 17.9 µM. Against the preceding molecule, the IC50 is about 1.9-fold higher.

At Acetylcholinesterase [1], `COc1cc2c(cc1OC)C(=O)C(CC1CCN(CCN)CC1)C2` (centres undefined) had an IC50 of 11.2 µM.

Molecule `Nc1ccc(CN2CCC(CCN3C(=O)c4ccccc4C3=O)CC2)cc1` gave an IC50 against Acetylcholinesterase [1] of 0.327 µM.

At Acetylcholinesterase [1], `Nc1cccc(CN2CCC(CCN3C(=O)c4ccccc4C3=O)CC2)c1` returned an IC50 of 0.15 µM. In “in vitro”, this molecule displayed an apparent permeability (Papp) at 8 h of 2.9 ×10⁻⁶ cm/s.

As for `O=C1c2ccccc2C(=O)N1CC1CCN(Cc2ccccc2)CC1`, half-maximal inhibition against Acetylcholinesterase [1] (IC50) was put at 22.8 µM. The Papp at 8 h in the series “in vitro” is 10.7 ×10⁻⁶ cm/s.

`COc1cc2c(cc1OC)C(=O)C(CC1CCN(Cc3cccc(NC(=O)c4ccccc4)c3)CC1)C2` (centres undefined) came in with a half-inhibitory concentration (IC50) at Acetylcholinesterase [1] of 22.8 µM.

At Acetylcholinesterase [1], `COc1cc2c(cc1OC)C(=O)C(CC1CCN(Cc3cccc(CN)c3)CC1)C2` (centres undefined) yielded an IC50 of 1.03 µM. The Papp at 8 h in “in vitro” came to 1.5 ×10⁻⁶ cm/s.

Take `COc1cc2c(cc1OC)C(=O)C(CC1CCN(CCCN)CC1)C2` (centres undefined): on Acetylcholinesterase [1], half-maximal inhibition (IC50) required 10.8 µM.

In turn, `COc1cc2c(cc1OC)C(=O)C(CC1CCN(CCCCN)CC1)C2` (centres undefined) registered an IC50 against Acetylcholinesterase [1] of 14.6 µM.

Take `O=C(c1ccccc1)N1CCC(CCN2C(=O)c3ccccc3C2=O)CC1`: the IC50 at Acetylcholinesterase [1] amounted to 63 µM.

At Acetylcholinesterase [1], `COc1cc2c(cc1OC)C(=O)C(CC1CCN(Cc3ccc(C(=O)O)cc3)CC1)C2` (centres undefined) showed a half-inhibitory concentration (IC50) of 72.2 µM.

In turn, `NCc1cccc(CN2CCC(CCN3C(=O)c4ccccc4C3=O)CC2)c1` yielded a concentration for half-maximal inhibition (IC50) at Acetylcholinesterase [1] of 0.299 µM. Also, in “in vitro”, the apparent permeability (Papp) at 8 h was 1.4 ×10⁻⁶ cm/s.

At Acetylcholinesterase [1], `NCc1ccc(CN2CCC(CCN3C(=O)c4ccccc4C3=O)CC2)cc1` gave a 50% inhibitory concentration (IC50) of 1.54 µM.

In turn, `COc1cc2c(cc1OC)C(=O)C(CC1CCN(Cc3ccc(N)cc3)CC1)C2` (centres undefined) displayed an IC50 against Acetylcholinesterase [1] of 0.0991 µM.

With `COc1cc2c(cc1OC)C(=O)C(CC1CCN(Cc3ccc(CN)cc3)CC1)C2` (centres undefined), the IC50 at Acetylcholinesterase [1] turned out to be 5.8 µM.

Consider `Nc1ccc(CN2CCC(CN3C(=O)c4ccccc4C3=O)CC2)cc1`, for which 25.2 µM corresponded to half-maximal inhibition at Acetylcholinesterase [1] (IC50).

At Acetylcholinesterase [1], `COc1cc2c(cc1OC)C(=O)C(CC1CCN(Cc3cccc(N)c3)CC1)C2` (centres undefined) yielded an IC50 of 0.0473 µM. Also, the apparent permeability coefficient (Papp) at 8 h in the series “in vitro” was determined as 3.7 ×10⁻⁶ cm/s.

On to `COc1cc(O)c(C(=O)Nc2nc(C(=O)NCCN(C(C)C)C(C)C)cs2)cc1OC` [ACOTIAMIDE], for which the logP in series [2] was less than 2. At Acetylcholinesterase [3], this molecule came in with an IC50 of 3 µM. Moreover, in “physchem”, the pH-dependent lipophilicity (logD) was determined as 0.7.

The molecule `Clc1cccc(Cl)c1N=C1NCCN1` [CLONIDINE] came in with a Papp at 8 h in “in vitro” of 12.2 ×10⁻⁶ cm/s.

On to `NCCc1ccc(O)c(O)c1` [DOPAMINE], for which the Papp at 8 h in “in vitro” came to 3.3 ×10⁻⁶ cm/s.
